Laboratory results published in patent publication US10258291B2, “Systems and methods for evaluation of neuropathologies” (The Regents of the University of California, priority 2012, dated 2019).
Entries after “also recorded” stand apart in the source; their conditions may differ.

How the values were obtained:
[1] = test system: rhesus macaques (Macaca mulatta); assay: Mismatch negativity (MMN) ERP in macaque EEG, auditory oddball paradigm, under ketamine, saline and 5 h post-ketamine; format: in vivo
Source text: (§1) In exemplary implementations of the disclosed technology to assess the efficacy of a treatment for a neuropsychiatric disorder, two adult male rhesus macaques (Macaca mulatta), e.g., 6 and 7 years old, were used. All procedures and animal care were approved by the Salk Institute Animal Care and Use Committee and carried out in accordance with the US National Institutes of Health Guide for the Care and Use of Laboratory Animals.
(§2) The exemplary stimuli presentation structure included a passive auditory intensity oddball paradigm to present different intensity tones to subjects sitting in an isolated, dimly lit room during the implementations. For example, the auditory stimuli included 100 ms (e.g., 10 ms rise/fall) pure sinusoidal tones (e.g., 1500 Hz) of either a low or a high intensity. Frequent (standard) and infrequent (deviant) stimuli were presented 80% and 20% of the time, respectively, as depicted in FIG. 4. The inter-stimulus interval was 700 ms. For example, twelve hundred standard and three hundred deviant stimuli were presented in each recording session. For example, both high-deviant (e.g., low-standard) and low-deviant (e.g., high-standard) conditions were used, e.g., to allow comparison of the responses to identical stimuli (e.g., low or high) in different contexts (e.g., standard or deviant).
(§3) For example, EEG scalp recordings were acquired with the Vision Recorder software using a BrainAmpMR system. An exemplary custom-designed 22-channel NHP EEG cap with AgCl electrodes was developed and used for the non-human primate subject data collection (e.g., PCB Ribbon Cable for BrainCap-MR with 5 k resistors; BrainCap MR Box 1.2; sintered ring electrodes with 1.5 mm touchproof safety socket termination and 120 cm heavy-duty leadwire).
(§4) The exemplary EEG data collection technique for the NHP subjects included the following preparation steps. […]
(§5) The exemplary EEG data was analyzed using Analyzer 2.0 software. […]

[2] = test system: rhesus macaques (Macaca mulatta); assay: P300 (P3) ERP in macaque EEG, auditory oddball paradigm, under ketamine, saline and 5 h post-ketamine; format: in vivo
Source text: as §1, §2, §3, §4, §5

[3] = ketamine, saline, 5 h post-ketamine

How did the “Effect of ketamine on MMN 5 h after infusion” value ([1]; 5 h-post ketamine vs. saline F(1,290)=0.20, p=0.652, ketamine vs. 5 h-post ketamine F(1,403)=7.97, p=0.005) turn out when `CNC1(c2ccccc2Cl)CCCCC1=O` (stereo not drawn) [ketamine] was run?
The value was “no longer significant; also recorded: full recovery”.

What about the “MMN amplitude, ketamine vs. saline” value ([1]; acute subanesthetic ketamine infusion 1 mg/Kg, vs. vehicle saline, F(1,290)=4.47, p=0.035, Cz electrode) of the same molecule?
The value was “significant reduction”.

What about the “MMN latency differences across conditions” value [1, 3] of the same molecule?
Its value is “No significant latency differences”.

And the “Effect of ketamine on P300 (P3) 5 h after infusion” value ([2]; 5 h-post ketamine vs. saline F(1,301)=0.06, p=0.803, ketamine vs. 5 h-post ketamine F(1,411)=44.34, p=0.000)?
Its value is “no longer significant; also recorded: full recovery”.

And the “P300 amplitude, ketamine vs. saline” value ([2]; acute subanesthetic ketamine infusion 1 mg/Kg, vs. vehicle saline, F(1,301)=27.73, p=0.000, Cz electrode)?
The value was “significant reduction”.

And the “P300 latency differences across conditions” value [2, 3]?
Its value is “No significant latency differences”.
